Test results from patent US20180325814A1, “CONFECTIONERY FOR ORAL CARE APPLICATIONS” (The Hershey Company, priority 2017, published 2018).

Tests used:
[1] = in vitro study of arginine, CGP and HPC, enamel microhardness (FIG. 3); design: species or system bovine; details: after 10 days of exposure
From the text: The in vitro study used bovine tooth enamel slabs which were polished and then subjected to an initial tooth softening step using lactic acid. An initial microhardness measurement was then made on each enamel specimen. The enamel specimens were subjected to four pH cycles per day, each cycle comprising a thirty-minute acid demineralization step followed by a twenty-minute lozenge remineralization step. Final microhardness measurements were taken on each specimen after 10 days of treatment and after 20 days of treatment. A fluoride dentifrice and a no-lozenge control sample were analyzed according to the same procedure for comparison purposes.
The latter two alternatives, chitosan and biofilm dispersing agents, were ruled out because they lacked approval for food use. Arginine was selected as the leading candidate for further evaluation. A new in vitro study was undertaken to evaluate arginine alone and in combination with CGP and HPC. CGP alone, CGP with HPC and fluoride were also investigated. The testing procedure was substantially the same as the in vitro study for calcium salts.
The height of each bar represents the change in the KHN as calculated by ΔKHN=KHN10-DAY−KHNINITIAL.

[2] = sugar alcohol assessment of salivary flow and time in mouth (FIG. 4); assay type: in vivo; details: test subjects using a mint vs at rest with no mint; preliminary results
From the text: In addition to evaluating additives for their ability to provide tooth strengthening properties, the inventors also investigated a number of sugar alcohols, individually and in combination, for their ability to increase salivary flow and TIM. The investigation included dual layer formulations as well as compressed tablets. Greater salivary flow is desirable to create calcium delivery and increased TIM provides greater delivery time for active ingredients to have an effect. In FIG. 4, the blue bars represent the average salivary flow difference (in ml/min) between test subjects at rest with no mint versus test subjects using a mint. The green bars represent the average dissolution time in seconds/1000.

| Molecule | change in enamel microhardness (ΔKHN) [1] | average salivary flow difference [2] |
| --- | --- | --- |
| N=C(N)NCCC[C@H](N)C(=O)O [Arginine] | did not produce significant results | – |
| Cl.N=C(N)NCCC[C@H](N)C(=O)O [arginine HCl] | did not produce significant results | – |
| OC[C@@H](O)[C@@H](O)CO [erythritol] | – | stimulated salivary flow |
| calcium glycerophosphate [CGP] | increase in microhardness that was very similar to the sample for fluoride | – |
